SMILES strings stand for the structures. pEC50: −log10 of the molar value.

Experimental findings from patent US12492193B2, “Pyrazole derivatives for the treatment of cystic fibrosis” (Fondazione Istituto Italiano Di Tecnologia, priority 2017, dated 2025) are described below.

T1 sequence (P13569 with tags, fused parts or gaps DEL508-508): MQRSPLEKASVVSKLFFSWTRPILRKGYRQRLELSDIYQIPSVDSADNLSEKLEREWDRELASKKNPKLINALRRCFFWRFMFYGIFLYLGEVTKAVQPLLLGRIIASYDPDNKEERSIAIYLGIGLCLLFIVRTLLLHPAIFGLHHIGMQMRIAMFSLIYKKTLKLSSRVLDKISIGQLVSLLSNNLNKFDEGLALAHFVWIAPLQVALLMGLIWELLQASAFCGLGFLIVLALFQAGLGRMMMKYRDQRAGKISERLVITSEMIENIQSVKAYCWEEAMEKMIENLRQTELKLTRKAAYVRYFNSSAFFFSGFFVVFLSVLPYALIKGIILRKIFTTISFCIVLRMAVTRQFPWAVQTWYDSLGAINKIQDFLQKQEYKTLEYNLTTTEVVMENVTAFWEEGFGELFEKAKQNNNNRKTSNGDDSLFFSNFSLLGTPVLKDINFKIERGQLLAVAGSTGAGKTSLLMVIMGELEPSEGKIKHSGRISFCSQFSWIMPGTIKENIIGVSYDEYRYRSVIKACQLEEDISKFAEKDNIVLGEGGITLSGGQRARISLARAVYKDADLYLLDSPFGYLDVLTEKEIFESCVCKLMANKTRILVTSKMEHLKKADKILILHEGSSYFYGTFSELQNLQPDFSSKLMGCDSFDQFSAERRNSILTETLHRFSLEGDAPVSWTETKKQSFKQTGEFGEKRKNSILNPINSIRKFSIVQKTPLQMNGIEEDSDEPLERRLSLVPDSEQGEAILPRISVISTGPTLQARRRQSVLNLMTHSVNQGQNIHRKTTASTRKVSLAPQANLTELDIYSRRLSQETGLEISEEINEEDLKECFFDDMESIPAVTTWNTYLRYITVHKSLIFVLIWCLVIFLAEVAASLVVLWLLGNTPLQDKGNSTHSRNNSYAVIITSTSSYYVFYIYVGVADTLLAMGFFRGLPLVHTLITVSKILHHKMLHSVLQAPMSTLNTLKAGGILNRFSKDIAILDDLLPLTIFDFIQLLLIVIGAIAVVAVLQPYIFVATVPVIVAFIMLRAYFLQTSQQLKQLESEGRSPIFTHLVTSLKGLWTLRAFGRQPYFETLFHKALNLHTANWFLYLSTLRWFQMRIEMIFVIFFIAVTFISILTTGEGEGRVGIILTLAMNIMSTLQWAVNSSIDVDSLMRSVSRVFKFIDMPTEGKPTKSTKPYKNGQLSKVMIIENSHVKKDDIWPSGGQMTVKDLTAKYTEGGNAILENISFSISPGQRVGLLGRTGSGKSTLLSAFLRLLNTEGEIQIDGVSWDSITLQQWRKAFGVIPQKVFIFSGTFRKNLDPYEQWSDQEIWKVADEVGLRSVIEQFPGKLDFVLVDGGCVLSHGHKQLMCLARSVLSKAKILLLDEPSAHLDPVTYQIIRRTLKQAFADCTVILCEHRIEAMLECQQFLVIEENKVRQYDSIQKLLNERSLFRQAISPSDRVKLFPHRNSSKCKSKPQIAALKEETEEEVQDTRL

The test concerns the target T1, mutant CFTR (Homo sapiens, UniProt P13569, DEL508-508).
T1 construct: expressed in transfected cells
Description: Fluorescence (HS-YFP) assay for CFTR activity, corrector assay. To be noted: CFBE41o- and FRT cells with stable expression of mutant CFTR, 24 h compound treatment. Type of test: cell-based. The procedure:
Fluorescence Assay for CFTR Activity
Mutant CFTR activity was determined with the functional assay based on the halide-sensitive yellow fluorescent protein, HS-YFP (Galietta et al., FEBS Lett 499: 220-224, 2001). CFBE41o- and FRT cells with stable expression of mutant CFTR and HS-YFP were plated on clear-bottom 96-well black microplates (Code 3603, Corning Life Sciences) at a density of 50,000 cells/well and kept at 37° C. in 5% CO2 for 24 hours. For the corrector assay, cells were treated for further 24 hours with test compounds, vehicle (DMSO), or the positive control VX-809. After treatment, the culture medium was removed and cells in each well were stimulated for 30 min at 37° C. with 60 μL PBS (containing 137 mM NaCl, 2.7 mM KCl, 8.1 mM Na2HPO4, 1.5 mM KH2PO4, 1 mM CaCl2, and 0.5 mM MgCl2) plus forskolin (20 μM) and genistein (50 μM).
For determination of potentiator activity on G551D-CFTR or G1349D-CFTR, cells were directly stimulated with forskolin plus test compound without previous incubation at low temperature. At the time of assay, microplates carrying CFBE41o- or FRT cells were transferred to microplate readers (BMG Labtech) equipped with high-quality excitation (HQ500/20X: 500±10 nm) and emission (HQ535/30M: 535±15 nm) filters for YFP (Chroma Technology). The assay consisted of a continuous 14 s fluorescence reading with 2 s before and 12 s after injection of an iodide-containing solution (165 μL of a modified PBS containing I^− instead of Cl^−; final I^− concentration in the well: 100 mM). Data were normalized to the initial background-subtracted fluorescence. Enhanced CFTR activity, induced by correctors and/or potentiators, results in accelerated I^− influx that in turn causes faster HS-YFP quenching (Pedemonte et al., Mol Pharmacol 68:1736-1746, 2005; Pedemonte et al., J Clin Invest 115:2564-2571, […]). To determine fluorescence quenching rate associated with I^− influx, the […] 10 s of data for each well were fitted with an exponential function to extrapolate initial slope (dF/dt).
EC50 obtained are illustrated in table 1 wherein +: EC50>2 μM; ++: 1.0 μM<EC50<2 μM; +++: EC50<1 μM.
As usually defined, the pEC50 is the EC50 on a negative log10 scale, so that one unit is a factor of ten. With `Cc1nn(-c2cccc(C(=O)N(C)c3ccc4c(c3)OC(F)(F)C(F)(F)O4)c2)c(C)c1Cl` [compound 008, 3-(4-Chloro-3,5-dimethyl-pyrazol-1-yl)-N-methyl-N-(2,2,3,3-tetrafluoro-1,4-benzodioxin-6-yl)benzamide], the pEC50 was less than 5.70.
In the case of `CN(C(=O)c1cccc(-n2cccn2)c1)c1ccc2c(c1)OCCO2` [compound 010, N-(2,3-Dihydro-1,4-benzodioxin-6-yl)-N-methyl-3-pyrazol-1-yl-benzamide] it was less than 5.70.
For `Cc1cc(C)n(-c2cccc(C(=O)N(C)c3ccc4c(c3)OCCO4)c2)n1` [compound 011, N-(2,3-Dihydro-1,4-benzodioxin-6-yl)-3-(3,5-dimethylpyrazol-1-yl)-N-methyl-benzamide] the value was less than 5.70.
On to `COc1ccc(N(C)C(=O)c2cccc(-n3nc(C)c(Cl)c3C)c2)cc1OC` [compound 014, 3-(4-Chloro-3,5-dimethyl-pyrazol-1-yl)-N-(3,4-dimethoxyphenyl)-N-methyl-benzamide], for which the pEC50 was less than 5.70.
For `Cc1nn(-c2cccc(C(=O)N(C)c3ccc4c(c3)OCO4)c2)c(C)c1Cl` [compound 015, N-(1,3-Benzodioxol-5-yl)-3-(4-chloro-3,5-dimethyl-pyrazol-1-yl)-N-methyl-benzamide] the value was more than 6.00.
For `Cc1cc(C)n(-c2cccc(S(=O)(=O)N(C)c3ccc4c(c3)OCCO4)c2)n1` [compound 017, N-(2,3-dihydro-1,4-benzodioxin-6-yl)-3-(3,5-dimethylpyrazol-1-yl)-N-methyl-benzenesulfonamide] the value was less than 5.70.
In the case of `CCN(C(=O)c1cccc(-n2nc(C)c(Cl)c2C)c1)c1ccc2c(c1)OC(F)(F)O2` [compound 019, 3-(4-Chloro-3,5-dimethyl-pyrazol-1-yl)-N-(2,2-difluoro-1,3-benzodioxol-5-yl)-N-ethyl-benzamide], the pEC50 was 5.70 to 6.00.
Consider `Cc1nn(-c2cccc(S(=O)(=O)N(C)c3ccc4c(c3)OCCO4)c2)c(C)c1Cl` [compound 020, 3-(4-chloro-3,5-dimethyl-pyrazol-1-yl)-N-(2,3-dihydro-1,4-benzodioxin-6-yl)-N-methyl-benzenesulfonamide], for which the pEC50 was 5.70 to 6.00.
In the case of `COc1ccc(N(C)C(=O)c2cccc(-n3nc(C)c(Cl)c3C)c2)cn1` [compound 021, 3-(4-Chloro-3,5-dimethyl-pyrazol-1-yl)-N-(6-methoxy-3-pyridyl)-N-methyl-benzamide], the pEC50 is less than 5.70.
For `Cc1nn(-c2cccc(C(=O)N(C)c3ccc4c(c3)CCC4)c2)c(C)c1Cl` [compound 023, 3-(4-chloro-3,5-dimethyl-pyrazol-1-yl)-N-indan-5-yl-N-methyl-benzamide] the value was more than 6.00; for `Cc1nn(-c2cccc(C(=O)N(C)c3ccc4c(c3)ncn4C)c2)c(C)c1Cl` [compound 024, 3-(4-Chloro-3,5-dimethyl-pyrazol-1-yl)-N-methyl-N-(1-methylbenzimidazol-5-yl)benzamide], less than 5.70.
In the case of `Cc1nc2cc(N(C)C(=O)c3cccc(-n4nc(C)c(Cl)c4C)c3)ccc2o1` [compound 025, 3-(4-Chloro-3,5-dimethyl-pyrazol-1-yl)-N-methyl-N-(2-methyl-1,3-benzoxazol-5-yl)benzamide] it was less than 5.70; in that of `Cc1nn(-c2cccc(C(=O)N(C)c3cccc4c3OC(F)(F)O4)c2)c(C)c1Cl` [compound 026, 3-(4-Chloro-3,5-dimethyl-pyrazol-1-yl)-N-(2,2-difluoro-1,3-benzodioxol-4-yl)-N-methyl-benzamide], less than 5.70; in that of `Cc1nn(-c2cccc(C(=O)N(C)c3ccc4ocnc4c3)c2)c(C)c1Cl` [compound 029, N-(1,3-Benzoxazol-5-yl)-3-(4-chloro-3,5-dimethyl-pyrazol-1-yl)-N-methyl-benzamide], less than 5.70.
For `Cc1nn(-c2cccc(C(=O)N(c3ccc4c(c3)OCCO4)C3CC3)c2)c(C)c1Cl` [compound 030, 3-(4-Chloro-3,5-dimethyl-pyrazol-1-yl)-N-cyclopropyl-N-(2,3-dihydro-1,4-benzodioxin-6-yl)benzamide] the value was less than 5.70; for `Cc1ccc(-n2nc(C)c(Cl)c2C)cc1C(=O)N(C)c1ccc2c(c1)OCCO2` [compound 031, 5-(4-chloro-3,5-dimethyl-pyrazol-1-yl)-N-(2,3-dihydro-1,4-benzodioxin-6-yl)-N, 2-dimethyl-benzamide], less than 5.70.
Turning to `Cc1nn(-c2cccc(C(=O)N(C)c3cc4c(cc3Cl)OCCO4)c2)c(C)c1Cl` [compound 032, N-(6-chloro-2,3-dihydro-1,4-benzodioxin-7-yl)-3-(4-chloro-3,5-dimethyl-pyrazol-1-yl)-N-methyl-benzamide], the pEC50 is more than 6.00.
On to `CN(C(=O)c1cccc(-n2cc(Cl)cn2)c1)c1ccc2c(c1)OCCO2` [compound 033, 3-(4-Chloropyrazol-1-yl)-N-(2,3-dihydro-1,4-benzodioxin-6-yl)-N-methyl-benzamide], for which the pEC50 is less than 5.70.
Turning to `Cc1nn(-c2cccc(C(=O)N(C)c3ccc4c(c3)OC(C)(C)O4)c2)c(C)c1Cl` [compound 034, 3-(4-Chloro-3,5-dimethyl-pyrazol-1-yl)-N-(2,2-dimethyl-1,3-benzodioxol-5-yl)-N-methyl-benzamide], the pEC50 is less than 5.70.
For `Cc1nn(-c2cccc(S(=O)(=O)N(C)c3ccc4c(c3)OC(F)(F)O4)c2)c(C)c1Cl` [compound 035, 3-(4-Chloro-3,5-dimethyl-pyrazol-1-yl)-N-(2,2-difluoro-1,3-benzodioxol-5-yl)-N-methyl-benzenesulfonamide] the value was less than 5.70; for `Cc1nn(-c2cccc(C(=O)N(C)c3ccc4c(c3)OCCN4)c2)c(C)c1Cl` [compound 036, 3-(4-Chloro-3,5-dimethyl-pyrazol-1-yl)-N-(3,4-dihydro-2H-1,4-benzoxazin-4-ium-7-yl)-N-methyl-benzamide 2,2,2-trifluoroacetate], less than 5.70.
Turning to `Cc1nn(-c2cccc(C(=O)N(C)c3ccc4c(c3)OCCO4)c2)c(C)c1C(C)(C)C` [compound 037, 3-(4-tert-Butyl-3,5-dimethyl-pyrazol-1-yl)-N-(2,3-dihydro-1,4-benzodioxin-6-yl)-N-methyl-benzamide], the pEC50 was 5.70 to 6.00.
Turning to `Cc1nn(-c2cccc(C(=O)N(C)c3ccc4c(c3)NCCO4)c2)c(C)c1Cl` [compound 038, 3-(4-Chloro-3,5-dimethyl-pyrazol-1-yl)-N-(3,4-dihydro-2H-1,4-benzoxazin-4-ium-6-yl)-N-methyl-benzamide 2,2,2-trifluoroacetate], the negative-log EC50 (pEC50) was less than 5.70.
For `[2H]C([2H])([2H])N(C(=O)c1cccc(-n2nc(C)c(Cl)c2C)c1)c1ccc2c(c1)OC(F)(F)O2` [compound 039, 3-(4-Chloro-3,5-dimethyl-pyrazol-1-yl)-N-(2,2-difluoro-1,3-benzodioxol-5-yl)-N-(trideuteriomethyl) benzamide] the value was 5.70 to 6.00; for `Cc1cc2c(cc1N(C)C(=O)c1cccc(-n3nc(C)c(Cl)c3C)c1)OCO2` [compound 042, 3-(4-chloro-3,5-dimethyl-pyrazol-1-yl)-N-methyl-N-(6-methyl-1,3-benzodioxol-5-yl)benzamide], 5.70 to 6.00.
In the case of `CCOC(=O)c1c(C)nn(-c2cccc(C(=O)N(C)c3ccc4c(c3)OCO4)c2)c1C` [compound 043, Ethyl 1-[3-[1,3-benzodioxol-5-yl(methyl)carbamoyl]phenyl]-3,5-dimethyl-pyrazole-4-carboxylate] it was less than 5.70.
`Cc1nn(-c2cccc(C(=O)N(C)c3ccc4c(c3)CCCC4)c2)c(C)c1Cl` [compound 044]: the pEC50 is less than 5.70.
In the case of `Cc1nc2ccc(N(C)C(=O)c3cccc(-n4nc(C)c(Cl)c4C)c3)cc2o1` [compound 047, 3-(4-Chloro-3,5-dimethyl-pyrazol-1-yl)-N-methyl-N-(2-methyl-1,3-benzoxazol-6-yl)benzamide] it was more than 6.00; in that of `Cc1nn(-c2cccc(C(=O)N(C)c3ccc4c(c3)OCO4)c2)c(C)c1C(=O)O` [compound 048, 1-[3-[1,3-Benzodioxol-5-yl(methyl)carbamoyl]phenyl]-3,5-dimethyl-pyrazole-4-carboxylic acid], less than 5.70.
For `Cc1nn(-c2cccc(C(=O)N(C)c3cc4c(cc3Cl)OC(F)(F)O4)c2)c(C)c1Cl` [compound 049, N-(6-Chloro-2,2-difluoro-1,3-benzodioxol-5-yl)-3-(4-chloro-3,5-dimethyl-pyrazol-1-yl)-N-methyl-benzamide] the value was more than 6.00.
